From the Deep4Chem optical property database
Where “and” joins values, the source holds several entries; their conditions need not be identical. Equal entries are not always repeated. Each block holds one compound with its values, some of them ahead of it.

Test: solvent given as SMILES

Structure (SMILES): COc1cc2c(cc1/C=C/C(=C(C#N)C#N)c1ccccc1)c1ccccc1n2C
- emission maximum (in C1CCOC1): 568 nm
- emission maximum (in CC#N): 589 nm
- emission maximum (in CCO): 575 nm
- emission maximum (in CCOC(C)=O): 549 nm and 548 nm
- emission maximum (in CN(C)C=O): 573 nm
- emission maximum (in CO): 575 nm
- emission maximum (in CS(C)=O): 581 nm
- emission maximum (in Cc1ccccc1): 566 nm
- emission maximum (in ClC(Cl)Cl): 554 nm
- emission maximum (in ClCCl): 560 nm

- emission maximum (in C1CCOC1): 408 nm
- emission maximum (in CC#N): 491 nm
- emission maximum (in CCOC(C)=O): 412 nm
- emission maximum (in CN(C)C=O): 449 nm
- emission maximum (in ClCCl): 442 nm
Structure (SMILES): CCn1c2ccc(/C=C/c3ccc4c(c3)c3cc(-c5nc6ccccc6s5)ccc3n4CC)cc2c2cc(-c3nc4ccccc4s3)ccc21

Structure (SMILES): c1ccc(-c2ccc(-c3ccc(N(c4ccccc4)c4ccccc4)cc3)c3nsnc23)cc1
- emission maximum (in C1CCOC1): 578 nm
- emission maximum (in CC(C)=O): 619 nm
- emission maximum (in CCCCCC): 526 nm
- emission maximum (in CCOCC): 558 nm

- emission maximum (in ClC(Cl)Cl): 440 nm
Structure (SMILES): c1ccc(-n2c(-c3ccc(-c4ccc5c(c4)C4(c6ccccc6-c6ccccc64)c4cc(-c6ccc(-c7nc8ccccc8n7-c7ccccc7)cc6)c6ccccc6c4-5)cc3)nc3ccccc32)cc1

- emission maximum (in CCO): 592 nm
- emission maximum (in ClCCl): 590 nm
Structure (SMILES): Ic1ccc(-c2c3ccc(=[N+]4CCCCC4)cc-3oc3cc(N4CCCCC4)ccc23)cc1

- emission maximum (in ClCCl): 406 nm
Structure (SMILES): c1ccc(C2=C(c3ccccn3)[Si](c3ccccc3)(c3ccccc3)c3ccccc32)cc1

- emission maximum (in CS(C)=O): 653 nm
- emission maximum (in O): 720 nm
Structure (SMILES): CC1(C)C(/C=C/C=C/c2cc3ccc(O)cc3oc2=O)=[N+](CCCS(=O)(=O)[O-])c2ccccc21
